# Laboratory results reported in patent US6150393A (priority 1999, dated 2000).
# Experiments:
# [1] = type: in vivo, rat (male Sprague-Dawley)
# Description: FIG. 7 provides a graphic summary of the reversal of MK-801-induced hyperactivity using 116081 (7A) and clozapine (7B). […] 116081 produced a significant reversal of the effect of MK-801 at a dose of 25 μmol/kg (10 mg/kg). Results are presented as total activity counts over the 120 min of exposure to the locomotor activity apparatus after administration of MK-801. Data (mean±SEM) were analyzed by ANOVA followed by Dunnett's test (n=6-8/group).
# Because part of the symptomatology of schizophrenia may be related to altered glutamate transmission at the NMDA receptor, the reversal of MK-801-induced hyperlocomotor activity in rodents has been used routinely as an animal model for detecting potential antipsychotic activity (O'Neill et al., Pharmacology Biochem. Behav., 63: 237-243, 1999). Thus, this test was used to determine potential antipsychotic properties of 116081 in vivo.
# Motor activity was assessed using automated locomotor activity cages as described above (Example 11(A), supra.). Male Sprague-Dawley rats (250-350 g body weight) were administered test compounds (i.p.) and placed in the locomotor activity cages for 30 min of habituation. Following habituation,animals were administered MK-801 (0.5 μmol/kg=0.17 mg/kg, s.c.) and then immediately placed back into the locomotor activity cages, and activity was measured for 120 min. A reversal of MK-801-induced motor activity (as shown by a significant […] of ambulation) in rats is considered to be predictive of the ability of the test compound to reverse psychotic symptoms.
# 5HT2 receptors = test: DOI inhibition study in rats, oral administration of test compound (oral availability); type: in vivo, rat
# Description: (§1) FIG. 6 provides a graphic summary of the effects of oral administration of 116082 and 116081 in a DOI inhibition study in rats. Values represent the mean±SEMs (n=6/group). #P<0.05 vs. vehicle/vehicle, *P<0.05 vs. vehicle/DOI, Student t-test.
# (§2) Based upon the in vivo data developed, oral bioavailability of compounds […] was considered. The compounds were administered by oral gavage at a dose of 50 mg/kg, 30 min prior to DOI in rats (see Example 11A, supra). Animals were placed in the locomotor activity cages 10 min after DOI administration and activity was measured for 10 min. Results, presented in FIG. 6, provide total activity counts over the 10 min of exposure to the locomotor activity apparatus.
# [2] = as above; type: in vivo, rat; details: in vivo; rat; 50 mg/kg oral vs 10 mg/kg i.p., inferred from DOI test
# Description: as §1, §2
structure (smiles),measurement,setting,value
"Cn1cc(Br)c(-c2cccc(NC(=O)Nc3ccc(Cl)cc3)c2)n1 [Compound 116081, N-[3-(4-bromo-1-methylpyrazol-3-yl)phenyl][(4-chlorophenyl)amino]carboxamide]","efficacy in reversing motor activity induced by MK-801, compared with clozapine",[1]; FIGS. 7A and 7B,equiefficacious to the atypical antipsychotic clozapine
same,attenuation of MK-801-induced hyperactivity (ambulations),"[1]; i.p., total activity counts over 120 min after MK-801",dose-dependently attenuated MK801-induced hyperactivity
same,oral efficacy compared with intraperitoneal administration,5HT2 receptors; 50 mg/kg oral vs 10 mg/kg i.p.,as efficacious as a 10 mg/kg dose of the same compounds administered intraperitoneally
same,"reversal of DOI-induced motor dysfunction, oral","5HT2 receptors; oral gavage 50 mg/kg, 30 min prior to DOI",reversed DOI-induced motor dysfunction in rats
same,oral activity,"5HT2 receptors; rat, DOI test, 50 mg/kg oral",orally active
same,bioavailability,[2],≥ 20%
